Source: US20260125375A1 (Pfizer Inc., priority 2022, published 2026)

How the values were obtained:
CBL-B (residues 36-427) = target: T1, CBL-B (residues 36-427) (Homo sapiens, UniProt Q13191); assay: Ligand Displacement Assay (LDA), HTRF competitive binding against BODIPY-labeled fluorescent tracer, CBL-B; details: geometric mean of the number of tests, read-out: CBL-B Ki (nM) GMean
T1 construct: Purified CBL-B (residues 36-427) and C-CBL (residues 46-435) proteins from baculovirus-infected insect cells; made in house; host or cells: baculovirus-infected insect cells
Summary of the method: (§1)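 Terbium-streptavidin donor on BirA-biotinylated, AviTagged protein from baculovirus-infected insect cells; BODIPY tracer as acceptor. Compound titrations were three-fold and duplicated, […] with 2% DMSO final.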

C-CBL (residues 46-435) = target: T2, C-CBL (residues 46-435) (Homo sapiens, UniProt P22681); assay: Ligand Displacement Assay (LDA), HTRF competitive binding against BODIPY-labeled fluorescent tracer, C-CBL; details: geometric mean of the number of tests, read-out: C-CBL Ki (nM) GMean
T2 construct: Purified CBL-B (residues 36-427) and C-CBL (residues 46-435) proteins from baculovirus-infected insect cells; made in house; host or cells: baculovirus-infected insect cells
T2 sequence (P22681 46-435): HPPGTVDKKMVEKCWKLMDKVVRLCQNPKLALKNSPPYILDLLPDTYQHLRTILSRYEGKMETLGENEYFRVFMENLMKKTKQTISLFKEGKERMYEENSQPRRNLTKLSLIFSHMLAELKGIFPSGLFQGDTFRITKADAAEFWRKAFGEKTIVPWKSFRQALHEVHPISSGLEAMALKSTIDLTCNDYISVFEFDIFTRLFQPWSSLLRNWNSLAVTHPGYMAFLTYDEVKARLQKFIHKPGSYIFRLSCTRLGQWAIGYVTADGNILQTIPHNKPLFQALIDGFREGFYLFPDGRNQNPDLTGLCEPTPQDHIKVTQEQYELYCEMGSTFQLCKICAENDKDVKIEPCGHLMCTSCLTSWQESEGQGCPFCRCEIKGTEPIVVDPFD
Summary of the method: as §1

WT CBL-B (36-427) = target: T3, WT CBL-B (36-427) (Homo sapiens, UniProt Q13191); assay: Surface Plasmon Resonance (SPR) assay, binding affinity and kinetics, CBL-B; details: SPR at 10° C., biotinylated WT CBL-B (36-427) on streptavidin chip; geometric mean; read-out: CBL-B SPR Kd (nM) GMean
T3 construct: N-terminal biotinylated WT CBL-B (36-427) and C-CBL (46-435) were captured on a streptavidin (SA) coated sensor chip
Summary of the method: (§2)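 SPR kinetics at 10° C, run either single-cycle (0.001–1 μM, 3-fold, 6 points, 120 s on, >5400 s off) or multi-cycle (10 points, 2-fold, top 10 or 100 μM, 90 s on). Proteins were N-biotinylated CBL-B (36-427) and C-CBL (46-435) on SA surfaces, in pH 7.2 HEPES, 2% DMSO.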

C-CBL (46-435) = target: T4, C-CBL (46-435) (Homo sapiens, UniProt P22681); assay: Surface Plasmon Resonance (SPR) assay, binding affinity and kinetics, C-CBL; details: SPR at 10° C., biotinylated C-CBL (46-435) on streptavidin chip; geometric mean; read-out: C-CBL SPR Kd (nM) GMean
T4 construct: N-terminal biotinylated WT CBL-B (36-427) and C-CBL (46-435) were captured on a streptavidin (SA) coated sensor chip
T4 sequence (P22681 46-435): T2 sequence (P22681 46-435)
Summary of the method: as §2

Row | SMILES | Ki (CBL-B (residues 36-427)) [nM] | Ki (C-CBL (residues 46-435)) [nM] | Kd (WT CBL-B (36-427)) [nM] | Kd (C-CBL (46-435)) [nM]
1 | CC(=O)NCC(C)c1nc(C(F)(F)F)cc2c(-c3cccc([C@H](c4nncn4C)C4CCC4)c3)n[nH]c12 (single isomer, unassigned) [Example M5] | 52.5 | 527 | 14.2 | 741
2 | Cn1cnnc1[C@@H](c1cccc(-c2n[nH]c3c(CN[C@@H]4CC[C@H](O)C4)nc(C(F)(F)F)cc23)c1)C1CCC1 [Example D34] | 6.5 | 59.9 | 1.8 | 101
3 | C[C@H](Cc1nncn1C)c1cccc(-c2n[nH]c3cnc(C(F)(F)F)cc23)c1 [Example N1, 3-{3-[(2R)-1-(4-methyl-4H-1,2,4-triazol-3-yl)propan-2-yl]phenyl}-5-(trifluoromethyl)-1H-pyrazolo[3,4-c]pyridine] | 70 | 249 | 35.8 | 275
4 | C[C@@H]1CN(Cc2nc(C(F)(F)F)cc3c(-c4cccc([C@H](c5nncn5C)C5CCC5)c4)n[nH]c23)CCO1 [Example C113, 3-{3-[(R)-cyclobutyl(4-methyl-4H-1,2,4-triazol-3-yl)methyl]phenyl}-7-{[(2R)-2-methylmorpholin-4-yl]methyl}-5-(trifluoromethyl)-1H-pyrazolo[3,4-c]pyridine] | 27.1 | 233 | 4.8 | 83.6
5 | Cn1cnnc1CC1(c2cccc(-c3n[nH]c4c(CNC5CCCC5)nc(C(F)(F)F)cc34)c2)COC1 [Example C54, N-{[3-(3-{3-[(4-methyl-4H-1,2,4-triazol-3-yl)methyl]oxetan-3-yl}phenyl)-5-(trifluoromethyl)-1H-pyrazolo[3,4-c]pyridin-7-yl]methyl}cyclopentanamine] | 10.7 | 49.4 | 4.5 | 93.2
6 | Cn1cnnc1CC1(c2cccc(-c3n[nH]c4c(CNC5CCC5)nc(C(F)(F)F)cc34)c2)COC1 [Example C57, N-{[3-(3-{3-[(4-methyl-4H-1,2,4-triazol-3-yl)methyl]oxetan-3-yl}phenyl)-5-(trifluoromethyl)-1H-pyrazolo[3,4-c]pyridin-7-yl]methyl}cyclobutanamine] | 18.9 | 96.3 | 3.3 | 116
7 | CN[C@@H](C)c1nc(C(F)(F)F)cc2c(-c3cccc(C4(Cc5nncn5C)COC4)c3)n[nH]c12 (single isomer, unassigned) [Example D37] | 22.2 | 64.5 | 7.9 | 68.6
8 | CC(C)NC(C)c1nc(C(F)(F)F)cc2c(-c3cccc(C4(Cc5nncn5C)COC4)c3)n[nH]c12 (single isomer, unassigned) [Example C80, N-{(1ξ)-1-[3-(3-{3-[(4-methyl-4H-1,2,4-triazol-3-yl)methyl]oxetan-3-yl}phenyl)-5-(trifluoromethyl)-1H-pyrazolo[3,4-c]pyridin-7-yl]ethyl}propan-2-amine] | 10.1 | 71.5 | 1.7 | 68.5
9 | C[C@@H](c1nc(C(F)(F)F)cc2c(-c3cccc(C4(Cc5nncn5C)COC4)c3)n[nH]c12)N1CC[C@H](F)C1 (single isomer, unassigned) [Example D97] | 25 | 139 | 31.9 | 230
10 | Cn1cnnc1[C@@H](c1cccc(-c2n[nH]c3c(CN[C@@H]4CCOC4)nc(C(F)(F)F)cc23)c1)C1CCC1 [Example C104, (3R)-N-{[3-{3-[(R)-cyclobutyl(4-methyl-4H-1,2,4-triazol-3-yl)methyl]phenyl}-5-(trifluoromethyl)-1H-pyrazolo[3,4-c]pyridin-7-yl]methyl}oxolan-3-amine] | 28 | 218 | 8.2 | 328
11 | CC(NC1CC2(COC2)C1)c1nc(C(F)(F)F)cc2c(-c3cccc([C@H](c4nncn4C)C4CCC4)c3)n[nH]c12 (single isomer, unassigned) [Example C97] | 31.8 | 141 | 9.6 | 242
12 | Cn1cnnc1[C@@H](c1cccc(-c2n[nH]c3c(CN4CCNC(=O)C4)nc(C(F)(F)F)cc23)c1)C1CCC1 [Example C112, 4-{[3-{3-[(R)-cyclobutyl(4-methyl-4H-1,2,4-triazol-3-yl)methyl]phenyl}-5-(trifluoromethyl)-1H-pyrazolo[3,4-c]pyridin-7-yl]methyl}piperazin-2-one] | 15.4 | 114 | 3 | 82.1
13 | Cn1cnnc1CC1(c2cccc(-c3n[nH]c4c(CN5CCC(F)(F)C5)nc(C(F)(F)F)cc34)c2)COC1 [Example C70, 7-[(3,3-difluoropyrrolidin-1-yl)methyl]-3-(3-{3-[(4-methyl-4H-1,2,4-triazol-3-yl)methyl]oxetan-3-yl}phenyl)-5-(trifluoromethyl)-1H-pyrazolo[3,4-c]pyridine] | 20.6 | 113 | 6 | 80
14 | C[C@@H](CO)c1nc(C(F)(F)F)cc2c(-c3cccc([C@H](c4nncn4C)C4CCC4)c3)n[nH]c12 (single isomer, unassigned) [Example K4, (2ξ)-2-[3-{3-[(ξ)-cyclobutyl(4-methyl-4H-1,2,4-triazol-3-yl)methyl]phenyl}-5-(trifluoromethyl)-1H-pyrazolo[3,4-c]pyridin-7-yl]propan-1-ol] | 17.6 | 156 | 8.3 | 207
15 | Cn1cnnc1[C@@H](c1cccc(-c2n[nH]c3c(CN[C@H]4C[C@H](O)C4)nc(C(F)(F)F)cc23)c1)C1CCC1 [Example C119, (1r,3r)-3-({[3-{3-[(R)-cyclobutyl(4-methyl-4H-1,2,4-triazol-3-yl)methyl]phenyl}-5-(trifluoromethyl)-1H-pyrazolo[3,4-c]pyridin-7-yl]methyl}amino)cyclobutan-1-ol] | 28.7 | 220 | 21.9 | 254
